# Legend:
# cytokine TNF-α release = experiment: Cytokine TNF-α release assay (MDS Panlabs); assay type: cell-based
# Experimental: (§1) The ability of Halofuginone to inhibit various biochemical processes according to a set of assays for determining the percent inhibition of specific binding or activity of particular cellular proteins is described in greater detail in Table 1 below. The assays were performed by MDS Panlabs Inc. (Bothell, […]., USA). These assays included: the inhibition of release of the cytokines IL-1β and TNF-α; and the inhibition of the transcription of NF-κB.
# β5 integrin chain = experiment: RT-PCR for β5 integrin chain in MDA 435 breast carcinoma cells; assay type: cell-based, human; conditions: MDA 435 cells, 24 h, 10-400 ng/ml
# Experimental: (§2) Therefore, the effect of Halofuginone was investigated on the expression of αv, β3 and β5 integrin subunits in the highly aggressive MDA 435 human breast carcinoma cell line. Cells were cultured in the absence (FIG. 4, lanes A & B) or presence of increasing concentrations (10-400 ng/ml) of Halofuginone for 24 h (lane C: 400 ng/ml), 48 h (lanes D-G: 10, 50, 200, and 400 ng/ml, respectively) or 72 h (FIG. 4, lane H: 400 ng/ml). Total RNA was extracted, subjected to 1.1% formaldehyde-agarose gel electrophoresis, transferred to a nylon membrane and hybridized with ^32P-labeled PCR probe corresponding to αv. […] This effect was […] at higher concentrations (200-400 ng/ml) of Halofuginone (FIG. 4, lanes F-H). Next, RT-PCR was used to analyze the effect of Halofuginone on expression of the β3 and β5 integrin chains by the MDA 435 breast carcinoma cells. […] In contrast, there was no effect on expression of the β5 mRNA. As the αvβ3 integrin complex plays an important role in tumor angiogenesis, the anti-angiogenic effect of Halofuginone may be mediated in part by its inhibition of the β3 gene expression.
# collagen α1(I) mRNA = experiment: Collagen α1(I) mRNA level in primary human fibroblasts; assay type: cell-based; conditions: tested at the level of RNA
# Experimental: The same protocol was used as previously. Primary human fibroblasts were treated for 1 hr with 10^−8 M Halofuginone. […] Arrays include 265 genes known to be involved in various types of cell interactions.
# TGF β = experiment: Ang II rat model: in situ hybridization of heart tissue with TGF-β1 probe; assay type: in vivo; conditions: rats given Ang II plus Halofuginone vs Ang II
# Experimental: (§3) The experimental method was as follows. Male Sprague-Dawley rats were divided into four groups. Two groups were chronically infused with Ang II at the rate of 0.150 ng/min by implanted mini-pump. This dosage regimen will induce severe cardiac fibrosis. The other two groups of rats, control rats, were injected with saline. One group of Ang II-treated rats and one control group were daily injected intraperitoneally with 16 micrograms of Halofuginone. At the end of the experimental period, the rats were sacrificed and the heart was removed and weighed. Heart samples were then hybridized with a probe for rat collagen α1(I) expression, or with a probe for TGF β1 expression. For hybridization with one of the genetic probes, the sections were deparafinized in xylene, rehydrated through a graded series of ethanol solutions, rinsed in distilled water for 5 minutes and then incubated in 2×SSC at 70° C. for 30 minutes. The sections were then rinsed in distilled water and treated with pronase, 0.125 mg/ml in 50 mM Tris-HCl, 5 mM EDTA, pH 7.5, for 10 minutes. After digestion, the slides were rinsed with distilled water, post-fixed in 10% formalin in PBS and blocked in 0.2% glycine. After blocking, the slides were rinsed in distilled water, rapidly dehydrated through graded ethanol solutions and air-dried for several hours. […]
# H19 gene = experiment: Northern blot for H19 gene expression in bladder carcinoma cell lines; assay type: cell-based, human; conditions: 130 ng/ml
# Experimental: RT112 and 5376 human bladder carcinoma cell lines were cultured in the absence and presence of Halofuginone (130 ng/ml, added 24 h or 72 h after seeding), and the expression of the H19 gene was evaluated by Northern blot analysis ([…]. et al., Arterioscler. Thromb. Vasc. Biol., Vol. 17, p. 194-202, 1997). […] Such inhibition also supports the inclusion of the inhibition of H19 gene expression as part of the extracellular matrix economy mechanism, as described previously.
# collagen α1(I) gene = experiment: Ang II rat model: in situ hybridization of heart tissue with rat collagen α1(I) probe; assay type: in vivo; conditions: rats given both Halofuginone and Ang II vs Ang II alone
# Experimental: as §3
# β3 integrin chain = experiment: RT-PCR for β3 integrin chain in MDA 435 breast carcinoma cells; assay type: cell-based, human; conditions: MDA 435 cells, 24 h, 200 ng/ml
# Experimental: as §2
# [1] = test system: Ang II-induced cardiac fibrosis; experiment: Ang II-induced cardiac fibrosis in rats: histology and collagen volume quantitation (Sirius red); assay type: in vivo, rat
# Experimental: The experimental method was as follows. Male Sprague-Dawley rats were divided into four groups. Two groups were chronically infused with Ang II at the rate of 0.150 ng/min by implanted mini-pump. This dosage regimen will induce severe cardiac fibrosis. The other two groups of rats, control rats, were injected with saline. One group of Ang II-treated rats and one control group were daily injected intraperitoneally with 16 micrograms of Halofuginone. At the end of the experimental period, the rats were sacrificed and the heart was removed and weighed. Heart samples were taken for histological examination. Briefly, the tissue samples were collected into phosphate-buffered saline (PBS) and fixed overnight in 4% paraformaldehyde in PBS at 4° C. Serial 5 μm sections were prepared after the samples had been dehydrated in graded ethanol solutions, cleared in chloroform and embedded in Paraplast. Differential staining of collagenous and non-collagenous proteins was performed with 0.1% Sirius red and 0.1% fast green as a counter-stain in picric acid. This procedure stains collagen red [Gascon-Barre, M., et al., J. Histochem. Cytochem., 37:377-381, 1989]. […] Indeed, the ventricular collagen volume fraction (CVF) was increased by threefold (p<0.05) in rats treated with Ang II, compared to rats treated with either Halofuginone alone or Halofuginone plus Ang II. In addition, the ventricular CVF for control rats was identical to that for rats treated with Halofuginone alone.
# cKrox gene expression = experiment: Northern blot for cKrox gene expression in human skin fibroblasts; assay type: cell-based; conditions: primary culture
# Experimental: (§4) Next, human skin fibroblasts were taken from a subject and were maintained in primary culture. Control cells were treated with vehicle while Halofuginone-treated cells were treated with Halofuginone as previously described. The cells were then harvested and subjected to RNA extraction and Northern blot analysis for collagen type I gene expression and for cKrox gene expression.
# [2] = test system: cell invasion through matrigel ECM; experiment: Boyden chamber invasion assay; assay type: cell-based; conditions: data not shown
# Description: Such inhibition supports the inclusion of type IV collagenase inhibition as part of the extracellular matrix economy mechanism, in which Halofuginone inhibits undesirable pathological processes such as tumor growth, progression and metastasis, as described previously.
# [3] = test system: collagen type I gene expression; experiment: Northern blot for collagen type I gene expression in myometrial and leiomyosarcoma cells; assay type: cell-based, human; conditions: increasing concentrations, about 48 hours
# Experimental: Myometrial and leiomyosarcoma cells were taken from the same patient and were plated into 10 cm plates in DMEM supplemented with 10% FCS. When the cells reached 80% confluence, the medium was replaced by serum free DMEM plus 0.1% BSA for 48 hours, washed and exposed to increasing concentrations of Halofuginone in the same medium for about 48 hours at about 37° C. The cells were then harvested and subjected to RNA extraction and Northern blot analysis for collagen type I gene expression.
# αv integrin subunit = experiment: Northern blot for integrin αv mRNA in MDA 435 breast carcinoma cells; assay type: cell-based, human; conditions: MDA 435 cells
# Experimental: as §2
# [4] = test system: MMP2 (72 kDa type IV collagenase); experiment: Gelatin zymography of type IV collagenase activity in T50 bladder carcinoma cell cultures; assay type: cell-based
# Experimental: Sub-confluent cell cultures were incubated for 6-24 h in serum-free DMEM. The collagenolytic activity was determined on a gelatin impregnated (1 mg/ml. Difco, Detroit, Mich.) SDS-PAGE 8% gel. Briefly, culture media samples were separated on the substrate impregnated gels under non reducing conditions, followed by 30 min incubation in 2.5% Triton X-100 (BDH, England). The gels were then incubated for 16 h at 37° C. in 50 mM Tris, 0.2 M NaCl, 5 mM CaCl2, 0.02% Brij 35 (weight/volume) at pH 7.5. At the end of incubation period, the gels were stained with 0.5% Coomassie G250 (Bio-Rad Richmond Calif.) in methanol/acetic acid/H2O (30:10:60). The intensity of the various bands was determined on a computerized densitometer (Molecular Dynamics type 300A).
# cytokine IL-1β release = experiment: Cytokine IL-1β release assay (MDS Panlabs); assay type: cell-based
# Experimental: as §1
# [5] = test system: collagen type I gene expression; experiment: Northern blot for collagen type I gene expression in human skin fibroblasts; assay type: cell-based; conditions: primary culture
# Experimental: as §4
# NF-κB transcription = NF-κB transcription assay (MDS Panlabs); assay type: cell-based
# Experimental: as §1
compound,measurement,setting,value
O=C(CC1NCCC[C@H]1O)Cn1cnc2cc(Br)c(Cl)cc2c1=O (stereo partly drawn) [Halofuginone],IC50,cytokine TNF-α release,6.8 nM
same,β5 mRNA expression,β5 integrin chain,no effect
same,collagen α1(I) mRNA,collagen α1(I) mRNA,reduced
same,Ang II-induced increase in expression of mRNA for TGF β in rat heart,TGF β,not affected
same,expression of the H19 gene,H19 gene; 5376 bladder carcinoma cell line,substantial reduction
same,expression of the H19 gene,H19 gene; RT112 bladder carcinoma cell line,substantial reduction
same,expression of collagen α1(I) gene in rat heart,collagen α1(I) gene,marked reduction
same,β3 mRNA expression,β3 integrin chain,almost complete inhibition
same,Ang II-induced morphological changes in rat heart (histology),"[1]; Ang II-infused rats, 16 micrograms daily intraperitoneally",substantially inhibited
same,ventricular CVF,"[1]; Halofuginone alone, without Ang II, two week period",did not alter
same,ventricular collagen volume (CVF),"[1]; rats given both Ang II and Halofuginone vs Ang II alone, 16 micrograms daily i.p.",markedly reduced
same,cKrox gene expression,cKrox gene expression,promoted cKrox gene expression
same,cell invasion through matrigel ECM,[2],inhibit cell invasion
same,collagen type I gene expression (products at 5.4 and 4.8 kb),[3],inhibited collagen type I gene expression
same,αv mRNA expression (up regulation effect),αv integrin subunit; 200-400 ng/ml,minimal
same,αv mRNA expression,"αv integrin subunit; 48 h, 10 and 50 ng/ml",up regulation
same,inhibition of the activity of MMP2 (72 kDa type IV collagenase),[4]; 25 ng/ml,profound inhibition
same,inhibition of the activity of MMP2 (72 kDa type IV collagenase),[4]; 100 ng/ml,almost complete inhibition
same,IC50,cytokine IL-1β release,31.7 nM
same,collagen type I gene expression,[5],inhibiting collagen type I gene expression
same,IC50,NF-κB transcription,25 nM
